Experimental data: patent publication US20090214445A1, “DELIVERY SYSTEMS FOR MANAGING RELEASE OF FUNCTIONAL INGREDIENTS IN AN EDIBLE COMPOSITION” (Cadbury Adams USA LLC, priority 2005, published 2009)

Test: Discoloration (degradation) of sucralose during encapsulation
Format: physicochemical
Details: with polyvinyl acetate, 2% polyvinylpyrollidone, 1% magnesium stearate; tablets pressed at 25° C., heated to 80° C.
Description: As one example of a hydrophilic coating, sucralose was mixed with powdered polyvinyl acetate and 5% fat and extruded at 110° C. […] In an alternative encapsulation, sucralose was mixed with powdered polyvinyl acetate, 2% polyvinylpyrollidone and 1% magnesium stearate and pressed into tablets at 25° C. The tablets were then heated to 80° C., which softened the polymer and fused the polyvinylacetate with the sucralose. […] Thereafter, the tablets were cooled, ground and sized and analyzed. […] As another example, a polymer/sweetener matrix was prepared as described above in this paragraph. A solution of gum arabic was made and coated on the polymer/sweetener matrix particles using the method described in U.S. Pat. No. 3,196,827, the relevant portions of which are incorporated herein by reference. Coating levels were 20, 30, 40, and 50% for different samples. Chewing gums prepared with the coated polymer/sweetener matrix particles were chewed by a panel with bolus collection at 5, 10, 15, 20 minutes. Residual sucralose was analyzed in each chewed bolus.

## OC[C@H]1O[C@H](O[C@]2(CCl)O[C@H](CCl)[C@@H](O)[C@@H]2O)[C@H](O)[C@@H](O)[C@H]1Cl [sucralose]
  discoloration of the sucralose: No discoloration
